Results as given in US20220110320A1, “ANTIMICROBIAL THIOURONIUM COPOLYMERS AND METHODS OF MAKING AND USING THE SAME” (priority 2020, published 2022).

Assay: 1H-NMR stability (hydrolysis) of VBT monomer
Format: physicochemical
Settings: 3 weeks
Procedure: ^1H-NMR Studies. The VBT monomer (5 mg/mL) stability in D2O (with 0.5 μL DMSO as standard) and 0.5 M sodium acetate was analyzed using ^1H-NMR (Avance-600 MHz, Bruker). The VBT peak position and integration were monitored vs. time.
The monomer was recrystallized before use to remove any deprotected thiols. The PVBT polymer was prepared using radical polymerization in TFE and was characterized using NMR spectroscopy. Because the thiouronium group is usually employed as a precursor to thiols, via base-induced hydrolysis, the stability of the VBT monomer under neutral and mildly basic conditions was assessed by recording ^1H-NMR spectra of VBT in D20 and in 0.5 M NaAc (pH≈9.2) for 3 weeks. […] In fact, hydrolysis is typically carried out at much higher pH.

C=Cc1ccc(CSC(=N)N)cc1.Cl [VBT]
Hydrolysis of monomer by 1H-NMR (in 0.5 M NaAc (pH≈9.2)): no signs of hydrolysis
Hydrolysis of monomer by 1H-NMR (in D2O): no signs of hydrolysis
